Where a name gives a salt, the structure may show the parent alone. Read-outs that look alike come from different tables or passages of the source.
Experiments:
CSF-1R (FMS) [1] = biological target: T1, CSF-1R (FMS) (Homo sapiens (Human), UniProt P07333); assay: SelectScreen Z'-LYTE kinase assay, Assay 336 for CSF-1R (FMS); assay type: biochemical; conditions: Z'-LYTE activity assay, 500 μM ATP (Km app); read-out: CSF-1R Enzyme IC50
KDR (VEGFR2) = KDR (VEGFR2) (Homo sapiens (Human), UniProt P35968); assay: SelectScreen Z'-LYTE kinase assay, Assay 540 for KDR (VEGFR2); assay type: biochemical; conditions: Z'-LYTE activity assay, 75 μM ATP (Km app); read-out: VEGFR2 Enzyme IC50
[2] = system: CD11b and CD24 positive cells; assay: In vivo efficacy study: flow cytometry of blood leukocytes from mice bearing NZM12 human melanoma xenografts; set-up: species or system NIH-III female mice; conditions: dosed daily for 14 days
CSF-1R (FMS) [3] = biological target: T1, CSF-1R (FMS); conditions: representative value, substrate Tyr 01, ATP Bin 500 μM; read-out: IC50 (nM) of known inhibitor, CSF-1R (FMS); cited from earlier work

Sequence of KDR (VEGFR2) (P35968 20-1356): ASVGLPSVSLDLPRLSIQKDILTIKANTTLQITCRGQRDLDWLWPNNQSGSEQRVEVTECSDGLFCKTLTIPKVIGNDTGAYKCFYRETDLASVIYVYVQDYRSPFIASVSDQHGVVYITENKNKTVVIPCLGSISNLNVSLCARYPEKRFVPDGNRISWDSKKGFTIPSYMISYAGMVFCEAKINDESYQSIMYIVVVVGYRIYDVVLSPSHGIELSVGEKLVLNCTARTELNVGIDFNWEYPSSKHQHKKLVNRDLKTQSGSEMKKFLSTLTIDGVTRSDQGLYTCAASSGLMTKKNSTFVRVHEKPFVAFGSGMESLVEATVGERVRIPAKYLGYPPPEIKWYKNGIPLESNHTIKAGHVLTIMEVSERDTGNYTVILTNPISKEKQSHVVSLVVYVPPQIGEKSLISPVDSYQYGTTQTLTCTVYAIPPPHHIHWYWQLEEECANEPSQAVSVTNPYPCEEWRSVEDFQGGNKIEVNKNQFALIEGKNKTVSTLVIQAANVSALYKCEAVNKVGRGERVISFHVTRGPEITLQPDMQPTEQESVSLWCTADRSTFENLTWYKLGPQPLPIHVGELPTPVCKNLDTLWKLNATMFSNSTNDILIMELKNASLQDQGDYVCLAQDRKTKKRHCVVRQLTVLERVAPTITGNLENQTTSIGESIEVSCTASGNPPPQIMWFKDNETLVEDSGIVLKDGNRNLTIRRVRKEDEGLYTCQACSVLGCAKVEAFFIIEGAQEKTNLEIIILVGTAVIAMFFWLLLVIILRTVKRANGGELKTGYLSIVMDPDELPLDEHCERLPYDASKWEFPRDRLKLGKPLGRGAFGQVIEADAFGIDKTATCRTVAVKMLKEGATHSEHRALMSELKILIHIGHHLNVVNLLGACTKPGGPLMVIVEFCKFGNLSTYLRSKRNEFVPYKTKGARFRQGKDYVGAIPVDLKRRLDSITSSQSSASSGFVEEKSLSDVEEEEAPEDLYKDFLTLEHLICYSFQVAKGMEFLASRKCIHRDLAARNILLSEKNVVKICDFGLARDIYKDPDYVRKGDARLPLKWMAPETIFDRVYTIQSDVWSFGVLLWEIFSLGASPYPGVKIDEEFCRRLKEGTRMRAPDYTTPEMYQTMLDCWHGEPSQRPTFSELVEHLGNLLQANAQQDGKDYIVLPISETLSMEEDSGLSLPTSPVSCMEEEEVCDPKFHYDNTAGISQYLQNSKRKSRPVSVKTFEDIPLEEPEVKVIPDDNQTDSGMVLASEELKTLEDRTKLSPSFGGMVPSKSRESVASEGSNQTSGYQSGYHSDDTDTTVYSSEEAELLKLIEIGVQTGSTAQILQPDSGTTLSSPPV
T1 sequence (P07333 20-972): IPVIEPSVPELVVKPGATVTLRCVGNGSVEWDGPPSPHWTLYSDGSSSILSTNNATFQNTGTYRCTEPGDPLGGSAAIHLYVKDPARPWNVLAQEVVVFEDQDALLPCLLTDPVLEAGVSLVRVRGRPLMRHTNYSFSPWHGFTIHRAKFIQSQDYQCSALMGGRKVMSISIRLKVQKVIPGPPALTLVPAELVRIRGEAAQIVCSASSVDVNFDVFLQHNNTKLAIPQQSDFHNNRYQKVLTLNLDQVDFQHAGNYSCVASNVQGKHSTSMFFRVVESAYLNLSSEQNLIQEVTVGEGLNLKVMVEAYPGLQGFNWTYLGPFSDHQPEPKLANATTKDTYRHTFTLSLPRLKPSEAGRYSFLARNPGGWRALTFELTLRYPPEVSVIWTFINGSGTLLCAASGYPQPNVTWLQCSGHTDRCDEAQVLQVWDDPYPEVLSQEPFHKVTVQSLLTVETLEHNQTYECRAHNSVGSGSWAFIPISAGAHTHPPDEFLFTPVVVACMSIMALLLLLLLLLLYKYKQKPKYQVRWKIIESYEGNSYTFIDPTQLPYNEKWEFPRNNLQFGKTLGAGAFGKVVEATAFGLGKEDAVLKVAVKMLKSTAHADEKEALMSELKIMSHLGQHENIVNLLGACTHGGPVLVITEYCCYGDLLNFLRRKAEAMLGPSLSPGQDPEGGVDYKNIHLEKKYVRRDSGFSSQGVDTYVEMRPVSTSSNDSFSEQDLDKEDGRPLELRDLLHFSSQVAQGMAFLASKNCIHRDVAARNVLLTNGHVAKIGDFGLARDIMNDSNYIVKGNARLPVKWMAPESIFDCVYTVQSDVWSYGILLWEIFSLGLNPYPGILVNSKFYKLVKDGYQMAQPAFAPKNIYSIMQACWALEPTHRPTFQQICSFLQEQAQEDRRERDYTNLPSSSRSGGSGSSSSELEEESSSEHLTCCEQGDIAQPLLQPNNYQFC

| Structure (SMILES) | IC50 (CSF-1R (FMS) [1]) [nM] | IC50 (KDR (VEGFR2)) [nM] | further results |
| --- | --- | --- | --- |
| COc1cc(Oc2ccc3c(=O)c4cc(C)cc(OCCN(C)C)c4oc3c2)cnc1OC [Example 9, 6-((5,6-Dimethoxypyridin-3-yl)oxy)-4-(2-(dimethylamino)ethoxy)-2-methyl-9H-xanthen-9-one] | < 100 | > 10000 |  |
| Cc1cc(OCCN(C)C)c2oc3cc(Oc4ccc(NCc5ccc(OC(F)(F)F)cc5)nc4)ccc3c(=O)c2c1 [Example 15, 4-(2-(Dimethylamino)ethoxy)-2-methyl-6-((6-((4-(trifluoromethoxy)benzyl)amino)-pyridin-3-yl)oxy)-9H-xanthen-9-one] | < 100 | > 10000 |  |
| Cc1cc(OCCN(C)C)c2oc3cc(Oc4ccc(N)nc4)ccc3c(=O)c2c1 [Example 17, 6-((6-Aminopyridin-3-yl)oxy)-4-(2-(dimethylamino)ethoxy)-2-methyl-9H-xanthen-9-one] | 100 to 1000 | > 10000 |  |
| COc1ccc(Cc2ccc3c(=O)c4cc(C)cc(OCCN(C)C)c4oc3c2)cn1 [Example 19, 4-(2-(Dimethylamino)ethoxy)-6-((6-methoxypyridin-3-yl)methyl)-2-methyl-9H-xanthen-9-one] | 100 to 1000 | > 10000 |  |
| Cc1cc(OCCN(C)C)c2oc3cc(Oc4ccc(NCC(=O)NC5CCCC5)nc4)ccc3c(=O)c2c1 [Example 25, N-Cyclopentyl-2-((5-((5-(2-(dimethylamino)ethoxy)-7-methyl-9-oxo-9H-xanthen-3-yl)oxy)pyridin-2-yl)amino)acetamide] | < 100 | > 10000 |  |
| CNCCOc1cc(C)cc2c(=O)c3ccc(Oc4ccc(CCC(=O)NC5CCCC5)nc4)cc3oc12 [Example 29, N-Cyclopentyl-3-(5-((7-methyl-5-(2-(methylamino)ethoxy)-9-oxo-9H-xanthen-3-yl)oxy)pyridin-2-yl)propanamide] | < 100 | > 10000 |  |
| Cc1cc(OCCCN(C)C)c2oc3cc(Oc4ccccc4)ccc3c(=O)c2c1 [Example 30, 4-[3-(Dimethylamino)propoxy]-2-methyl-6-phenoxy-9H-xanthen-9-one] | 100 to 1000 | 1000 to 10000 |  |
| Cc1cc(OCCCN2CCOCC2)c2oc3cc(Oc4ccccc4)ccc3c(=O)c2c1 [Example 33, 2-Methyl-4-(3-morpholinopropoxy)-6-phenoxy-9H-xanthen-9-one] | 100 to 1000 | > 10000 |  |
| Cc1cc(OCCCCN(C)C)c2oc3cc(Oc4ccccc4)ccc3c(=O)c2c1 [Example 34, 4-(4-(Dimethylamino)butoxy)-2-methyl-6-phenoxy-9H-xanthen-9-one] | 100 to 1000 | 1000 to 10000 |  |
| Cc1cc(OCCC2CCN(C)CC2)c2oc3cc(Oc4ccccc4)ccc3c(=O)c2c1 [Example 36, 2-Methyl-4-(2-(1-methylpiperidin-4-yl)ethoxy)-6-phenoxy-9H-xanthen-9-one] | 100 to 1000 | 1000 to 10000 |  |
| Cc1cc(OCCN(C)C)c2oc3cc(Sc4ccc(CCC(=O)NC5CCCC5)nc4)ccc3c(=O)c2c1 [Example 43, N-Cyclopentyl-3-(5-((5-(2-(dimethylamino)ethoxy)-7-methyl-9-oxo-9H-xanthen-3-yl)thio)pyridin-2-yl)propanamide] | < 100 | 1000 to 10000 |  |
| Cc1cc(OCCN(C)C)cc2c(=O)c3ccc(Oc4ccc(CCC(=O)NC5CCCC5)nc4)cc3oc12 [Example 45, N-Cyclopentyl-3-(5-((7-(2-(dimethylamino)ethoxy)-5-methyl-9-oxo-9H-xanthen-3-yl)oxy)pyridin-2-yl)propanamide] | < 100 | 1000 to 10000 |  |
| Cc1cc(OCCN(C)C)c2oc3cc(Oc4cccnc4)ccc3c(=O)c2c1 [Example 53, 4-(2-(Dimethylamino)ethoxy)-2-methyl-6-(pyridin-3-yloxy)-9H-xanthen-9-one] | 100 to 1000 | > 10000 |  |
| Cc1cc(OCCN2CCN(CC(F)(F)F)CC2)c2oc3cc(Oc4ccc(CCC(=O)NC5CCCC5)nc4)ccc3c(=O)c2c1 [Example 59, N-Cyclopentyl-3-(5-((7-methyl-9-oxo-5-(2-(4-(2,2,2-trifluoroethyl)piperazin-1-yl)ethoxy)-9H-xanthen-3-yl)oxy)pyridin-2-yl)propanamide] | < 100 | > 10000 |  |
| Cc1cc(OCCN2C[C@@H](C)N(C)[C@@H](C)C2)c2oc3cc(Oc4ccc(CCC(=O)NC5CCCC5)nc4)ccc3c(=O)c2c1 [Example 62, N-Cyclopentyl-3-(5-((7-methyl-9-oxo-5-(2-((3S,5R)-3,4,5-trimethylpiperazin-1-yl)ethoxy)-9H-xanthen-3-yl)oxy)pyridin-2-yl)propanamide] | < 100 | > 10000 |  |
| Cc1cc(OCCCN2CCN(C(C)C)CC2)c2oc3cc(Oc4ccc(CCC(=O)NC5CCCC5)nc4)ccc3c(=O)c2c1 [Example 66, N-Cyclopentyl-3-(5-((5-(3-(4-isopropylpiperazin-1-yl)propoxy)-7-methyl-9-oxo-9H-xanthen-3-yl)oxy)pyridin-2-yl)propanamide] | < 100 | 1000 to 10000 |  |
| FC(F)(F)c1ccc(CNc2ccc(Cc3c[nH]c4ncc(Cl)cc34)cn2)cn1 [PLX3397, Pexidartinib, reference compound] |  |  | number of cells of myeloid lineage in the treated mice [2]: reduce the number of cells of myeloid lineage |
| COc1cc2ncnc(Nc3cccc(Cl)c3)c2cc1OC [Tyrphostin AG1478] |  |  | IC50 (CSF-1R (FMS) [3]): 6480 nM |
| Cc1cc(OCCN(C)C)c2oc3cc(Oc4ccc(CCC(=O)NC5CCCC5)nc4)ccc3c(=O)c2c1 [dimethanesulfonate salt of compound 22, N-cyclopentyl-3-(5-((5-(2-(dimethylamino)ethoxy)-7-methyl-9-oxo-9H-xanthen-3-yl)-oxy)pyridin-2-yl)propanamide] |  |  | number of cells of myeloid lineage in the treated mice [2]: reduce the number of cells of myeloid lineage; levels of CD11b positive cells ([2]; blood leukocytes, versus PLX3397 and control (FIG. 1)): reduced the levels of CD11b and CD24 positive cells to a similar or greater extent compared with treatment with PLX3397; levels of CD24 positive cells ([2]; blood leukocytes, versus PLX3397 and control (FIG. 2)): reduced the levels of CD11b and CD24 positive cells to a similar or greater extent compared with treatment with PLX3397 |

Reference: patent US11028064B2, “Tricyclic heterocyclic derivatives and uses thereof” (AUCKLAND UNISERVICES LIMITED, priority 2016, dated 2021)
